Reference: US11596611B2, “Hepatitis B antiviral agents” (ENANTA PHARMACEUTICALS, INC., priority 2017, dated 2023)

Assays:
[1] = Compound toxicity by ATPLite (total ATP levels); assay type: cell-based; details: human, three days after compound addition, 50% reduction of total ATP
Protocol: Methods: HepAD38 cells are maintained as previously reported (Ladner et al, Antimicrob. Agents Chemother. 1997, […], 1715). Briefly, cells are passaged upon attaining confluency in DMEM/F12 media in the presence of 10% FBS, Penn/Strep, 250 μg/mL G418, and 1 ug/ml tetracycline. Novel compounds are screened by first washing cells three times with PBS to remove tetracycline, and plating in 96 well plates at 35,000 cells/well. Compounds dissolved in DMSO are then diluted 1:200 into wells containing cells. Five days after compound addition, material is harvested for analysis. For an extended 8 days analysis, cells are plated and treated as described above, but media and compound are refreshed on d2 and d5 post initial treatment.
Compound toxicity is evaluated by seeding cells at 15,000 cells/well and treating with compound as described above.

[2] = system: HBV; experiment: HepAD38 antiviral assay: reduction of viral product accumulation (virion DNA by qPCR, HBsAg or HBeAg by ELISA); assay type: cell-based, hepatitis B virus; details: Hepatitis B virus, 120 h; HepAD38 cells, five days after compound addition; 50% reduction of viral product vs no drug controls; read-out: HepAD38 EC50
In short: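 Tetracycline-free HepAD38 cells exposed to compound (DMSO stock diluted 1:200) for 5 days, or 8 days with media and compound refreshed on d2 and d5. Virion DNA quantified by qPCR after lysis; HBsAg or HBeAg measured by ELISA on diluted samples.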

Row | SMILES | CC50 at 3 days ([1]; numeric bounds) | EC50 [2] | CC50 at 3 days ([1]; class symbols)
1 | O=C(Nc1cc(F)c(F)c(F)c1)c1ccc(Cl)c(S(=O)(=O)[C@H]2CC3CCC(C2)[C@@]3(O)C(O)CO)c1 (mixture of isomers) [Example 10] | > 12.5 µM | < 0.104 µM | –
2 | O=C(C[C@]1(O)C2CCC1C[C@@H](S(=O)(=O)c1cc(C(=O)Nc3cc(F)c(F)c(F)c3)ccc1Cl)C2)N[C@H]1C[C@H](O)C1 [Example 111] | > 3 µM | < 0.104 µM | –
3 | COC(=O)[C@H]1O[C@@H](OC[C@@]2(O)C3CC[C@H]2C[C@H](S(=O)(=O)c2cc(C(=O)Nc4ccc(F)c(F)c4)ccc2Cl)C3)[C@H](OC(C)=O)[C@@H](OC(C)=O)[C@@H]1OC(C)=O [Example 329] | – | < 0.104 µM | > 25 µM
4 | [2H]C1([2H])C2C[C@]([2H])(S(=O)(=O)c3cc(C(=O)Nc4ccc(F)c(F)c4)ccc3Cl)CC(C1([2H])[2H])[C@]2(O)CO [Example 272] | – | < 0.104 µM | > 25 µM
5 | O=C(Nc1ccc(F)c(F)c1)c1ccc(Cl)c(S(=O)(=O)[C@H]2CC3CCC(C2)[C@]3(O)[C@H](O)c2cccnc2)c1 (single isomer, unassigned) [Example 285b] | – | < 0.104 µM | > 25 µM
6 | C[C@@H](O)[C@H](O)[C@]1(O)C2CCC1C[C@@H](S(=O)(=O)c1cc(C(=O)Nc3ccc(F)c(F)c3)ccc1Cl)C2 (single isomer, unassigned) [Example 183] | – | < 0.104 µM | > 25 µM
7 | C=CCc1cc(Cl)c(S(=O)(=O)[C@H]2CC3CCC(C2)[C@@]3(C)O)cc1C(=O)Nc1ccc(F)c(F)c1 [Example 135] | – | < 0.104 µM | < 10 µM
8 | O=C(Nc1cc(F)c(F)c(F)c1)c1ccc(Cl)c(S(=O)(=O)[C@H]2CC3CCC(C2)[C@]3(O)CNC(=O)C2CCCCO2)c1 (stereo partly drawn) [Example 91] | – | < 0.104 µM | 10 to 25 µM
9 | C=C1CC1C(=O)NC[C@@]1(O)C2CC[C@H]1C[C@H](S(=O)(=O)c1cc(C(=O)Nc3cc(F)c(F)c(F)c3)ccc1Cl)C2 (stereo partly drawn) [Example 66] | – | < 0.104 µM | 10 to 25 µM
10 | C[C@H](O)[C@@H](O)[C@]1(O)C2CCC1C[C@@H](S(=O)(=O)c1cc(C(=O)Nc3ccc(F)c(F)c3)ccc1Cl)C2 (single isomer, unassigned) [Example 182] | – | < 0.104 µM | > 25 µM
11 | CO[C@@H](C)CNC(=O)C[C@]1(O)C2CCC1C[C@@H](S(=O)(=O)c1cc(C(=O)Nc3ccc(F)c(F)c3)ccc1Cl)C2 [Example 188] | > 12.5 µM | < 0.104 µM | –
12 | C[C@H](O)C(=O)[C@]1(O)C2CCC1C[C@@H](S(=O)(=O)c1cc(C(=O)Nc3ccc(F)c(F)c3)ccc1Cl)C2 [Example 345] | – | < 0.104 µM | > 25 µM
13 | C[C@H](O)[C@@H](O)[C@]1(O)C2CCC1C[C@@H](S(=O)(=O)c1cc(C(=O)Nc3ccc(F)c(F)c3)ccc1Cl)C2 (mixture of isomers) [Example 173] | > 6.25 µM | < 0.104 µM | –
14 | C/C=C/C(=O)NC[C@]1(O)C2CCC1C[C@@H](S(=O)(=O)c1cc(C(=O)Nc3cc(F)c(F)c(F)c3)ccc1Cl)C2 [Example 12] | > 3 µM | < 0.104 µM | –
15 | C[C@H](O)COC[C@]1(O)C2CCC1C[C@@H](S(=O)(=O)c1cc(C(=O)Nc3ccc(F)c(F)c3)ccc1Cl)C2 [Example 176] | > 6.25 µM | < 0.104 µM | –
16 | CC(C)(O)C1CN(C(=O)C[C@]2(O)C3CCC2C[C@@H](S(=O)(=O)c2cc(C(=O)Nc4cc(F)c(F)c(F)c4)ccc2Cl)C3)C1 [Example 93] | > 6.25 µM | < 0.104 µM | –
17 | CC(C)(C)OC(=O)N[C@@H](Cc1ccccc1)C(=O)N1C2CCC1CC(S(=O)(=O)c1cc(C(=O)Nc3cc(F)c(F)c(F)c3)ccc1Cl)C2 (stereo partly drawn) [Example 152] | – | > 0.2 µM | > 25 µM
18 | CC(=O)OC[C@H](O)[C@@H](O)[C@@]1(O)C2CC[C@H]1C[C@H](S(=O)(=O)c1cc(C(=O)Nc3cc(F)c(F)c(F)c3)ccc1Cl)C2 (relative stereo) [Example 68] | – | < 0.104 µM | > 25 µM
19 | Cc1ccnc(C(O)[C@@]2(O)C3CC[C@H]2C[C@H](S(=O)(=O)c2cc(C(=O)Nc4ccc(F)c(F)c4)ccc2Cl)C3)c1 (stereo partly drawn) [Example 296] | – | < 0.104 µM | > 25 µM
20 | CC(C)(O)C[C@@]1(O)C2CC[C@H]1C[C@H](S(=O)(=O)c1cc(C(=O)Nc3ccc(F)c(F)c3)ccc1Cl)C2 [Example 193] | – | < 0.104 µM | > 25 µM

Row | SMILES | CC50 at 3 days ([1]; numeric bounds) | EC50 [2] | CC50 at 3 days ([1]; class symbols)
21 | O=C(Nc1ccc(F)c(F)c1)c1ccc(F)c(S(=O)(=O)[C@@H]2CC3CC[C@@H](C2)[C@@]3(O)CO)c1 [Example 325] | – | < 0.104 µM | > 25 µM
22 | C[C@@H](O)[C@H](O)COC[C@]1(O)C2CCC1C[C@@H](S(=O)(=O)c1cc(C(=O)Nc3ccc(F)c(F)c3)ccc1Cl)C2 [Example 178] | – | < 0.104 µM | > 25 µM
23 | CC(C)=CCNC(=O)C[C@]1(O)C2CCC1C[C@@H](S(=O)(=O)c1cc(C(=O)Nc3cc(F)c(F)c(F)c3)ccc1Cl)C2 [Example 52] | – | < 0.104 µM | > 25 µM
24 | O=C(Nc1cc(F)c(F)c(F)c1)c1ccc(Cl)c(S(=O)(=O)[C@H]2CC3CCC(C2)[C@]3(O)CNC(=O)C2CCCOC2)c1 (stereo partly drawn) [Example 90] | > 6.25 µM | < 0.104 µM | –
25 | O=C(Nc1ccc(F)c(F)c1)c1ccc(Cl)c(S(=O)(=O)[C@H]2CC3CCC(C2)[C@]3(O)CNC(=O)c2nccs2)c1 [Example 168] | – | < 0.104 µM | 10 to 25 µM
26 | Cc1cccc(C(O)[C@@]2(O)C3CC[C@H]2C[C@H](S(=O)(=O)c2cc(C(=O)Nc4ccc(F)c(F)c4)ccc2Cl)C3)n1 (stereo partly drawn) [Example 294] | – | < 0.104 µM | > 25 µM
27 | C[C@H](O)CNC(=O)C[C@]1(O)C2CCC1C[C@@H](S(=O)(=O)c1cc(C(=O)Nc3ccc(F)c(C(F)F)c3)ccc1Cl)C2 [Example 129] | – | < 0.104 µM | > 25 µM
28 | CC(C)(O)CNC(=O)C[C@]1(O)C2CCC1C[C@@H](S(=O)(=O)c1cc(C(=O)Nc3ccc(F)c(F)c3)ccc1Cl)C2 [Example 187] | > 12.5 µM | < 0.104 µM | –
29 | C[C@H](O)[C@@H](O)[C@@]1(O)C2CC[C@H]1C[C@H](S(=O)(=O)c1cc(C(=O)Nc3cc(F)c(F)c(F)c3)ccc1Cl)C2 (single isomer, unassigned) [Example 137] | > 6.25 µM | < 0.104 µM | –
30 | CC(C)OC(=O)N[C@@H](C)C(=O)NC[C@]1(O)C2CCC1C[C@@H](S(=O)(=O)c1cc(C(=O)Nc3cc(F)c(F)c(F)c3)ccc1Cl)C2 [Example 70] | – | < 0.104 µM | > 25 µM
31 | C[C@@H](O)COC[C@]1(O)C2CCC1C[C@@H](S(=O)(=O)c1cc(C(=O)Nc3ccc(F)c(F)c3)ccc1Cl)C2 [Example 177] | > 6.25 µM | < 0.104 µM | –
32 | C[C@@H](O)[C@@H](O)[C@@]1(O)C2CC[C@H]1C[C@H](S(=O)(=O)c1cc(C(=O)Nc3cc(F)c(F)c(F)c3)ccc1Cl)C2 (single isomer, unassigned) [Example 136] | > 12.5 µM | < 0.104 µM | –
33 | O=C(Nc1ccc(F)c(F)c1)c1ccc(Cl)c(S(=O)(=O)[C@H]2CC3CCC(C2)[C@]3(O)C(O)Cc2ccccn2)c1 (stereo partly drawn) [Example 319] | – | < 0.104 µM | > 25 µM
34 | O=C(Nc1ccc(F)c(F)c1)c1ccc(Cl)c(S(=O)(=O)[C@H]2CC3CCC(C2)[C@]3(O)C(O)Cc2ccncc2)c1 (stereo partly drawn) [Example 317] | – | < 0.104 µM | > 25 µM
35 | CO[C@H](C)CNC(=O)C[C@]1(O)C2CCC1C[C@@H](S(=O)(=O)c1cc(C(=O)Nc3ccc(F)c(F)c3)ccc1Cl)C2 [Example 189] | > 12.5 µM | < 0.104 µM | –
36 | CC(=O)C[C@@]1(O)C2CC[C@H]1C[C@H](S(=O)(=O)c1cc(C(=O)Nc3ccc(F)c(F)c3)ccc1Cl)C2 [Example 215] | – | < 0.104 µM | > 25 µM
37 | CN1CCC[C@@H]1C(=O)NC[C@]1(O)C2CCC1C[C@@H](S(=O)(=O)c1cc(C(=O)Nc3cc(F)c(F)c(F)c3)ccc1Cl)C2 [Example 1] | > 3 µM | < 0.104 µM | –
38 | COCCNC(=O)C[C@]1(O)C2CCC1C[C@@H](S(=O)(=O)c1cc(C(=O)Nc3cc(F)c(F)c(F)c3)ccc1Cl)C2 [Example 114] | > 6.25 µM | < 0.104 µM | –
39 | C[C@H](O)CNC(=O)C[C@]1(O)C2CCC1C[C@@H](S(=O)(=O)c1cc(C(=O)Nc3ccc(F)c(F)c3)ccc1Cl)C2 [Example 185] | > 12.5 µM | < 0.104 µM | –
